Results taken from patent publication US9932627B2, “Method for determination of the length of the G-tail sequence and kit for the method” (HIROSHIMA UNIVERSITY, priority 2005, dated 2018).

Experiments:
SiHa cancer cell [1] = experiment: Entire telomere length by telomere HPA on denatured DNA (JP 2001-95586, Comparative Example); assay type: cell-based, human; details: treated with telomestatin (5 μm) for 48 hours, denatured DNA 0.5 μg, control C = 4500
Description: (§1) The dominant negative allelic gene (TRF2^ΔBΔM) was infected to various cells (HeLa cancer cell, SiHa cancer cell, MCF-7 cancer cell, MRC-5-hTERT normal fibroblast, and 90p normal mammary epithelial cell) according to a method similar to that in <9-3>; The nondenatured DNA was isolated from each cell (HeLa cancer cell, SiHa cancer cell, MCF-7 cancer cell, MRC-5-hTERT normal fibroblast, and 90p normal mammary epithelial cell) according to a method similar to that in <4-2>; The nondenatured DNA (5 μg) was used in the G tail measuring method according to the present invention for measurement of the G tail length; and, as a Comparative Example, the measuring method described in Japanese Unexamined Patent Publication No. 2001-95586 was applied to each denatured DNA (0.5 μg) for measurement of the entire telomere length. ExoI treatment was performed similarly to the method described in <4-3> and culture of the cells used, similarly to the method described in <9-2>.
FIG. 11a is a graph showing the results of measuring G tail by the measuring method according to the invention. FIG. 11b is a graph showing the results of measuring the total telomere length by the measuring method described in Japanese Unexamined Patent Publication No. 2001-95586 as a Comparative Example. […]

[2] = test system: MRC-5-hTERT normal fibroblast; experiment: as above; assay type: cell-based; details: treated with telomestatin (5 μm) for 48 hours, denatured DNA 0.5 μg, control C = 6800
Description: as §1
(§2) FIG. 11a is a graph showing the results of measuring G tail by the measuring method according to the invention. FIG. 11b is a graph showing the results of measuring the total telomere length by the measuring method described in Japanese Unexamined Patent Publication No. 2001-95586 as a Comparative Example. In FIG. 11a, “C” represents a control; “T” represents a cell treated with a G tail-shortening medicine telomestatin (5 μm) for 48 hours; represents a ExoI-treated cell; and − represents an untreated cell. […] In FIG. 11b, “C” represents a control; and “T” represents a cell previously treated with a G tail-shortening medicine telomestatin (5 μm) for 48 hours.
(§3) Thus apparently in the measuring method described in Patent Document 1 (Japanese Unexamined Patent Publication No. 2001-95586), the G tail length gives signal intensity only at a noise level within the range of the operation and measurement error, prohibiting G tail measurement. Then, the values on the ordinate in FIG. 11a were converted to average G tail lengths by using the calibration curve shown in FIG. 2 and the values on the ordinate in FIG. 11b to the entire telomere lengths, to give the following results shown in Table 4.

HeLa cancer cell [3] = experiment: as above; assay type: cell-based; details: treated with telomestatin (5 μm) for 48 hours, denatured DNA 0.5 μg, control C = 4700
Description: as §1, §2, §3

MCF-7 cancer cell [4] = experiment: as above; assay type: cell-based; details: treated with telomestatin (5 μm) for 48 hours, denatured DNA 0.5 μg, control C = 4000
Description: as §1, §2, §3

[5] = test system: 90p normal mammary epithelial cell; experiment: as above; assay type: cell-based; details: treated with telomestatin (5 μm) for 48 hours, denatured DNA 0.5 μg, control C = 3500
Description: as §1, §2, §3

[6] = test system: MRC-5-hTERT normal fibroblast; experiment: G tail length measurement by G tail HPA on nondenatured genomic DNA of treated cells; assay type: cell-based; details: treated with telomestatin (5 μm) for 48 hours, nondenatured DNA 5 μg, control C = 96
Method: (§4) The hydrolysis of the AE in an unhybridized probe was performed by charging 300 μL of a hydrolysis buffer (0.6 mol/L tetrasodium borate buffer containing 50 mL/L of Triton X-100, pH 8.5) into each reaction tube, stirring the mixture vigorously with a Vortex mixer, and incubating the mixture at 60° C. for 10 minutes. The AE in the hybridized probe was not hydrolyzed under the above-described condition. These tubes were cooled on ice for 1 minute or more, and the chemiluminescence in each tube was measured with a luminometer (trade name: Leader 1, manufactured by Gene Probe Inc.) for 2 seconds.
(§5) For the confirmation of nondenatured genomic DNA dose response by the measuring method according to the invention, SiHa cancer cell line-derived nondenatured genomic DNA samples in various amounts (1 μg, 3 μg, 5 μg, 10 μg and 20 μg) and the AE-labeled G tail HPA probe in an amount of 3×10^6 rlu were hybridized with each other. Specifically for detection of the telomere 3′-tail (G tail) in genomic DNA, the total amount of the DNA solution in a Falcon 352053 tube (trade name) was adjusted to 100 μL with sterile water or a TE buffer (10 mM Tris/HCl, 1 mM EDTA, pH 8.0). The AE-labeled G tail HPA probe in an amount of 3×10^6 rlu dissolved in 100-μL of the hybridization buffer was added to the DNA solution, and the mixture was stirred thoroughly with a Vortex mixer and incubated at 60° C. for 20 minutes. The hydrolysis of the AE in unhybridized probe and the detection of the chemiluminescence were performed under a condition similar to that in <1-2>.
(§6) In the present invention, the nondenatured genomic DNA may not be isolated for use, but the nondenatured genomic DNA used in the confirmation test <4-1> was previously isolated in the following manner: The nondenatured genomic DNA used for G tail length measurement was isolated from each cell line by using the phenol-chloroform extraction method. Specifically, cells were centrifuged in an Eppendorf-micro centrifuge tube at 6,000 rpm and 4° C. for 5 minutes, to give a pellet in the microtube. The pellet was washed once with PBS(−) and resuspended in an extraction buffer containing 10 mM Tris buffer (pH 7.6), 150 mM NaCl and NP-40, to a final concentration of 0.5%. After proteinase K digestion, phenol-chloroform extraction was performed twice. The genomic DNA was precipitated with ethanol, treated with RNase A, and then, dissolved in a TE buffer. […]

HeLa cancer cell [7] = experiment: as above; assay type: cell-based; details: treated with telomestatin (5 μm) for 48 hours, nondenatured DNA 5 μg, control C = 126
Method: as §4, §5, §6

MCF-7 cancer cell [8] = experiment: as above; assay type: cell-based; details: treated with telomestatin (5 μm) for 48 hours, nondenatured DNA 5 μg, control C = 212
Method: as §4, §5, §6

[9] = test system: 90p normal mammary epithelial cell; experiment: as above; assay type: cell-based; details: treated with telomestatin (5 μm) for 48 hours, nondenatured DNA 5 μg, control C = 98
Method: as §4, §5, §6

SiHa cancer cell [10] = experiment: as above; assay type: cell-based, human; details: treated with telomestatin (5 μm) for 48 hours, nondenatured DNA 5 μg, control C = 220
Method: as §4
For the confirmation of nondenatured genomic DNA dose response by the measuring method according to the invention, SiHa cancer cell line-derived nondenatured genomic DNA samples in various amounts (1 μg, 3 μg, 5 μg, 10 μg and 20 μg) and the AE-labeled G tail HPA probe in an amount of 3×10^6 rlu were hybridized with each other. Specifically for detection of the telomere 3′-tail (G tail) in genomic DNA, the total amount of the DNA solution in a Falcon 352053 tube (trade name) was adjusted to 100 μL with sterile water or a TE buffer (10 mM Tris/HCl, 1 mM EDTA, pH 8.0). […]

## Cc1oc2nc1-c1nc(co1)-c1nc(co1)-c1nc(co1)-c1nc(co1)-c1nc(co1)C1=NC(CS1)c1nc-2c(C)o1 (stereo not shown) [telomestatin]
SiHa cancer cell [1]
  Entire telomere length (nt): 4600 nt
[2]
  Entire telomere length (nt): 6750 nt
HeLa cancer cell [3]
  Entire telomere length (nt): 4600 nt
MCF-7 cancer cell [4]
  Entire telomere length (nt): 3900 nt
[5]
  Entire telomere length (nt): 3450 nt
[6]
  Average G tail length (nt): 96.5 nt
HeLa cancer cell [7]
  Average G tail length (nt): 89 nt
MCF-7 cancer cell [8]
  Average G tail length (nt): 162 nt
[9]
  Average G tail length (nt): 96 nt
SiHa cancer cell [10]
  Average G tail length (nt): 121 nt
